Laboratory results reported in patent publication US8563542B2 (Cyclacel Limited, priority 2007, dated 2013).

Biological target: PLK1 (Homo sapiens, UniProt P53350)
Assay: PLK1 protein kinase assay (CDC25C phosphorylation, [γ-32P]-ATP)
Assay type: biochemical
Details: Table 2, PLK1 IC50; class symbols; read-out: PLK1 IC50

Chain of PLK1 (P53350 whole entry): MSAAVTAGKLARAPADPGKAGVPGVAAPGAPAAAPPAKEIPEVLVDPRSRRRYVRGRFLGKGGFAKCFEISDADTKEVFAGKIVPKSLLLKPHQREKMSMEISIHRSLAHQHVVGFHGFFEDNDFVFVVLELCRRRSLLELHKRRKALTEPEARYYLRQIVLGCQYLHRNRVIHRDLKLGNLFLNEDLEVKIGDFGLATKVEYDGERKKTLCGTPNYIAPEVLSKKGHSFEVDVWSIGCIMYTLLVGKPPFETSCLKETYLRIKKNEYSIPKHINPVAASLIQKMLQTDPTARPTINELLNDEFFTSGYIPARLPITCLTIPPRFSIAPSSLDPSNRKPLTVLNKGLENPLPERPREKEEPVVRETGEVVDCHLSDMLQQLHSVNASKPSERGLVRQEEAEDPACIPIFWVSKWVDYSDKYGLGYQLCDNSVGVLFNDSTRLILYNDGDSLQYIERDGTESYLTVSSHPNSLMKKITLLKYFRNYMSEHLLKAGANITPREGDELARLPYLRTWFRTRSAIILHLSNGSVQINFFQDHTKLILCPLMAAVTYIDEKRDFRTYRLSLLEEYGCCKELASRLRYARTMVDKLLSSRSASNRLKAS

SMILES	IC50
COc1cc(C(=O)NC2CCN(C)CC2)ccc1Nc1ncc2c(n1)N(CCC(=O)N(C)C)CCC(=O)N2C [compound 225, 4-[9-(2-Dimethylcarbamoyl-ethyl)-5-methyl-6-oxo-6,7,8,9-tetrahydro-5H-pyrimido[4,5-b][1,4]diazepin-2-ylamino]-3-methoxy-N-(1-methyl-piperidin-4-yl)-benzamide]	< 1000 nM
COc1cc(C(=O)NC2CCN(C)CC2)ccc1Nc1ncc2c(n1)N(CCC(=O)NCCCN(C)C)CCC(=O)N2C [compound 226, 4-{9-[2-(3-Dimethylamino-propylcarbamoyl)-ethyl]-5-methyl-6-oxo-6,7,8,9-tetrahydro-5H-pyrimido[4,5-b][1,4]diazepin-2-ylamino}-3-methoxy-N-(1-methyl-piperidin-4-yl)-benzamide]	< 1000 nM
CN1CCC(NC(=O)c2ccc(Nc3ncc4c(n3)N(C3CCCC3)CCC(=O)N4C)c(O)c2)CC1 [compound 228, 4-(9-Cyclopentyl-5-methyl-6-oxo-6,7,8,9-tetrahydro-5H-pyrimido[4,5-b][1,4]diazepin-2-ylamino)-3-hydroxy-N-(1-methyl-piperidin-4-yl)-benzamide]	< 100 nM
CCc1cc(C(=O)O)ccc1Nc1ncc2c(n1)N(C1CCCC1)CC1(CC1)C(=O)N2C [compound 229, 4-(9-Cyclopentyl-5-methyl-6-oxo-6,7,8,9-tetrahydro-5H-pyrimido[4,5-b][1,4]diazepin-3,1′-cyclopropane-2-ylamino)-acid]	< 1000 nM
COc1cc(C(=O)O)ccc1Nc1ncc2c(n1)N(CC1CC1)CC1(CC1)C(=O)N2C [compound 230, 4-(9-Cyclopropylmethyl-5-methyl-6-oxo-6,7,8,9-tetrahydro-5H-pyrimido[4,5-b][1,4]diazepin-3,1′-cyclopropane-2-ylamino)-3-methoxy-benzoic acid]	< 1000 nM
CCN(CC)CCNC(=O)c1ccc(OC)c(Nc2ncc3c(n2)N(C2CCCC2)CCC(=O)N3C)c1 [compound 231, 3-(9-Cyclopentyl-5-methyl-6-oxo-6,7,8,9-tetrahydro-5H-pyrimido[4,5-b][1,4]diazepin-2-ylamino)-N-(2-diethylamino-ethyl)-4-methoxy-benzamide]	< 1000 nM
COc1ccc(C(=O)NCCCN(C)C)cc1Nc1ncc2c(n1)N(C1CCCC1)CCC(=O)N2C [compound 232, 3-(9-Cyclopentyl-5-methyl-6-oxo-6,7,8,9-tetrahydro-5H-pyrimido[4,5-b][1,4]diazepin-2-ylamino)-N-(3-dimethylamino-propyl)-4-methoxy-benzamide]	< 1000 nM
COc1ccc(C(=O)NCCCO)cc1Nc1ncc2c(n1)N(C1CCCC1)CCC(=O)N2C [compound 233, 3-(9-Cyclopentyl-5-methyl-6-oxo-6,7,8,9-tetrahydro-5H-pyrimido[4,5-b][1,4]diazepin-2-ylamino)-N-(3-hydroxy-propyl)-4-methoxy-benzamide]	< 1000 nM
COc1ccc(C(=O)NC(C)(C)CN2CCCCC2)cc1Nc1ncc2c(n1)N(C1CCCC1)CCC(=O)N2C [compound 234, 3-(9-Cyclopentyl-5-methyl-6-oxo-6,7,8,9-tetrahydro-5H-pyrimido[4,5-b][1,4]diazepin-2-ylamino)-N-(1,1-dimethyl-2-piperidin-1-yl-ethyl)-4-methoxy-benzamide]	< 10000 nM
COc1ccc(C(=O)NCC2CCN(C)CC2)cc1Nc1ncc2c(n1)N(C1CCCC1)CCC(=O)N2C [compound 235, 3-(9-Cyclopentyl-5-methyl-6-oxo-6,7,8,9-tetrahydro-5H-pyrimido[4,5-b][1,4]diazepin-2-ylamino)-4-methoxy-N-(1-methyl-piperidin-4-ylmethyl)-benzamide]	< 1000 nM
CCN1CCC(NC(=O)c2ccc(Nc3ncc4c(n3)N(C3CCCC3)CCC(=O)N4C)c(OC)c2)CC1 [compound 237, 4-(9-Cyclopentyl-5-methyl-6-oxo-6,7,8,9-tetrahydro-5H-pyrimido[4,5-b][1,4]diazepin-2-ylamino)-N-(1-ethyl-piperidin-4-yl)-3-methoxy-benzamide]	< 100 nM
COc1cc(C(=O)NC2CCN(CC3CC3)CC2)ccc1Nc1ncc2c(n1)N(C1CCCC1)CCC(=O)N2C [compound 238, 4-(9-Cyclopentyl-5-methyl-6-oxo-6,7,8,9-tetrahydro-5H-pyrimido[4,5-b][1,4]diazepin-2-ylamino)-N-(1-cyclopropylmethyl-piperidin-4-yl)-3-methoxy-benzamide]	< 100 nM
COc1cc(C(=O)O)ccc1Nc1ncc2c(n1)N(C1CCCC1)CC1(CC1)C(=O)N2C [compound 239, 4-(9-Cyclopentyl-5-methyl-6-oxo-6,7,8,9-tetrahydro-5H-pyrimido[4,5-b][1,4]diazepin-3,1′-cyclopropane-2-ylamino)-3-methoxy-benzoic acid]	< 1000 nM
COc1cc(C(=O)NC2CCN(Cc3ccccc3)CC2)ccc1Nc1ncc2c(n1)N(CC1CC1)CCC(=O)N2C [compound 241, N-(1-Benzyl-piperidin-4-yl)-4-(9-cyclopropylmethyl-5-methyl-6-oxo-6,7,8,9-tetrahydro-5H-pyrimido[4,5-b][1,4]diazepin-2-ylamino)-3-methoxy-benzamide]	< 1000 nM
COc1cc(C(=O)NCC2CCN(C)CC2)ccc1Nc1ncc2c(n1)N(CC1CC1)CCC(=O)N2C [compound 242, 4-(9-Cyclopropylmethyl-5-methyl-6-oxo-6,7,8,9-tetrahydro-5H-pyrimido[4,5-b][1,4]diazepin-2-ylamino)-3-methoxy-N-(1-methyl-piperidin-4-ylmethyl)-benzamide]	< 1000 nM
COc1cc(C(=O)NC2CN3CCC2CC3)ccc1Nc1ncc2c(n1)N(CC1CC1)CCC(=O)N2C (centres unmarked) [compound 243, N-(1-Aza-bicyclo[2.2.2]oct-3-yl)-4-(9-cyclopropylmethyl-5-methyl-6-oxo-6,7,8,9-tetrahydro-5H-pyrimido[4,5-b][1,4]diazepin-2-ylamino)-3-methoxy-benzamide]	< 1000 nM
COc1cc(C(=O)NC2CC(C)(C)N(C)C(C)(C)C2)ccc1Nc1ncc2c(n1)N(CC1CC1)CCC(=O)N2C [compound 244, 4-(9-Cyclopropylmethyl-5-methyl-6-oxo-6,7,8,9-tetrahydro-5H-pyrimido[4,5-b][1,4]diazepin-2-ylamino)-3-methoxy-N-(1,2,2,6,6-pentamethyl-piperidin-4-yl)-benzamide]	< 1000 nM
COc1cc(C(=O)NC2CCCN(C)C2)ccc1Nc1ncc2c(n1)N(CC1CC1)CCC(=O)N2C (centres unmarked) [compound 245, 4-(9-Cyclopropylmethyl-5-methyl-6-oxo-6,7,8,9-tetrahydro-5H-pyrimido[4,5-b][1,4]diazepin-2-ylamino)-3-methoxy-N-(1-methyl-piperidin-3-yl)-benzamide]	< 1000 nM
COc1cc(C(=O)NCC(C)(C)CN(C)C)ccc1Nc1ncc2c(n1)N(CC1CC1)CCC(=O)N2C [compound 246, 4-(9-Cyclopropylmethyl-5-methyl-6-oxo-6,7,8,9-tetrahydro-5H-pyrimido[4,5-b][1,4]diazepin-2-ylamino)-N-(3-dimethylamino-2,2-dimethyl-propyl)-3-methoxy-benzamide]	< 1000 nM
COc1cc(C(=O)NCCCN(C)C)ccc1Nc1ncc2c(n1)N(CC1CC1)CCC(=O)N2C [compound 247, 4-(9-Cyclopropylmethyl-5-methyl-6-oxo-6,7,8,9-tetrahydro-5H-pyrimido[4,5-b][1,4]diazepin-2-ylamino)-N-(3-dimethylamino-propyl)-3-methoxy-benzamide]	< 1000 nM
